Data reported in US10617557B2, “Combined drug delivery methods and apparatus” (ForSight Vision4, Inc., priority 2010, dated 2020).
≈ marks a conversion by molar mass, not a printed value. Read-outs that look alike come from different tables or passages of the source.

Legend:
[1] = Calculated release of COX inhibitors from the therapeutic device into the vitreous; design: species or system human; settings: from half-life 3 hr
[2] = system: COX; settings: cited from earlier work
[3] = vitreous, input of the calculation; cited from earlier work
[4] = representative of a small molecule, input of the calculation; cited from earlier work
[5] = cited from earlier work
[6] = system: VEGF-induced cell proliferation, or receptor binding; settings: depending on the target assay; cited from earlier work
[7] = system: Grade IV choroidal neovascularization (CNV) lesions; settings: intravitreal injection, all doses tested, cynomolgus monkeys; cited from earlier work
[8] = Diffusion coefficients of proteins and small molecules; format: physicochemical; settings: simulation parameter, Tables 4A and 4E
Source text: If the reservoir solution is aqueous or has a viscosity similar to water, the value for the diffusion coefficient of the therapeutic agent (TA) in water at the temperature of interest may be used.
Small molecules have a diffusion coefficient similar to fluorescein (MW=330, D=4.8 to 6 e-6 cm^2/s from Stay, M S et al. Pharm Res 2003, 20(1), pp. 96-102). For example, the small molecule may comprise a glucocorticoid such as triamcinolone acetonide having a molecular weight of about 435.

[9] = rabbit and monkey, cited from earlier work
[10] = human eye; listed as ranibizumab; cited from earlier work

For `O=C(c1ccccc1)c1ccc2n1CCC2C(=O)O` (stereo not drawn) [ketorolac], the “Rate constant, k” value [1] is given as 5.545 day⁻¹, the “IC50 (ug/ml) (Inhibitory Level)*” value [2] is given as 0.007 µg/mL (≈ 0.0274 µM) and the “Half-life” value [3] is given as 3 h. The Diffusion coeff [4] was 5.0E−06 cm2/s.

In the case of `Cc1ccc(-c2cc(C(F)(F)F)nn2-c2ccc(S(N)(=O)=O)cc2)cc1` [celecoxib], the Solubility in water [5] is given as “approximately 3 ug/ml”.

For `C[C@]12C=CC(=O)C=C1CC[C@H]1[C@@H]3C[C@@H](O)[C@](O)(C(=O)CO)[C@@]3(C)C[C@H](O)[C@@]12F` [triamcinolone], the IC50 [6] is given as ~1.5 nM.

In the case of `Nc1c(CC(=O)O)cccc1C(=O)c1ccc(Br)cc1` [bromfenac], the “IC50 (ug/ml) (Inhibitory Level)*” value [2] is listed as 0.0025 µg/mL (≈ 0.00748 µM).

For ranibizumab [Lucentis™], the “Development of Grade IV CNV lesions” value [7] is listed as “completely inhibited”, the Diffusion coeff [8] is listed as 1.0E−06 cm2/s and the “Half-life in the vitreous” value [9] is listed as “two to four”. The “Half-life in the vitreous” value ([9]; listed as ranibizumab) was “approximately 3 days” and the “Half-life in the vitreous” value [10] was 220 h.
